From ChEMBL document CHEMBL1201862, “PubChem BioAssay data set” (2004)
Activity calls are given as the source filed them. For most assays here, no stated cut-off is given here; in the data, actives have a measured IC50 and inactives only a lower limit.

Tests used:
Assay type in all cases: functional
[1] = Luminescence Cell-Based Dose Retest to Confirm Inhibitors of Cancer Stem Cells. [Related pubchem assays (depositor defined):AID2717, AID2721]; conditions: Homo sapiens
[2] = biological target: T1, Sentrin-specific protease 8 (Homo sapiens, UniProt Q96LD8); test: SENP8 protease inhibitors, SAR follow-up, biochemical, luminescence (AID 504501)
T1 sequence (Q96LD8 whole entry): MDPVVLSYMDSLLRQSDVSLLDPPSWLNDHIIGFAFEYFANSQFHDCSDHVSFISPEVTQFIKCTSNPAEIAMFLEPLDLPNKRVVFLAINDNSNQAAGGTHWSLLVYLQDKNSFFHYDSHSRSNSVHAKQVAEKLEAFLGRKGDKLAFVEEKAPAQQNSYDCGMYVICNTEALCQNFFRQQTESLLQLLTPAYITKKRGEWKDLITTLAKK

Caspase-3 [3] = biological target: T2, Caspase-3 (Homo sapiens, UniProt P42574); test: SAR Analysis of small molecule inhibitors of Sentrin-specific proteases (SENPs) using a Caspase-3 Selectivity assay. [Related pubchem assays (depositor defined):AID2540, AID2599, AID434973, AID489001]
T2 sequence (P42574 whole entry): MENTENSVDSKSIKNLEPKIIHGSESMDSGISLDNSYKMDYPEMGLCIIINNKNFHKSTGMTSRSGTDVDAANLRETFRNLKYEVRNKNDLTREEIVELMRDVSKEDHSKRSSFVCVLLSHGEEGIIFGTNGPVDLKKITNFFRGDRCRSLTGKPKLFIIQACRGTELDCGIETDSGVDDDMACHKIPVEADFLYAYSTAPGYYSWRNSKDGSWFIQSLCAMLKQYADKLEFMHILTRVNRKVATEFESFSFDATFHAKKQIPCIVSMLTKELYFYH

[4] = biological target: T3, Sentrin-specific protease 7 (Homo sapiens, UniProt Q9BQF6); test: SENP7 protease inhibitors, SAR follow-up, biochemical, luminescence (AID 504497)
T3 sequence (Q9BQF6 whole entry): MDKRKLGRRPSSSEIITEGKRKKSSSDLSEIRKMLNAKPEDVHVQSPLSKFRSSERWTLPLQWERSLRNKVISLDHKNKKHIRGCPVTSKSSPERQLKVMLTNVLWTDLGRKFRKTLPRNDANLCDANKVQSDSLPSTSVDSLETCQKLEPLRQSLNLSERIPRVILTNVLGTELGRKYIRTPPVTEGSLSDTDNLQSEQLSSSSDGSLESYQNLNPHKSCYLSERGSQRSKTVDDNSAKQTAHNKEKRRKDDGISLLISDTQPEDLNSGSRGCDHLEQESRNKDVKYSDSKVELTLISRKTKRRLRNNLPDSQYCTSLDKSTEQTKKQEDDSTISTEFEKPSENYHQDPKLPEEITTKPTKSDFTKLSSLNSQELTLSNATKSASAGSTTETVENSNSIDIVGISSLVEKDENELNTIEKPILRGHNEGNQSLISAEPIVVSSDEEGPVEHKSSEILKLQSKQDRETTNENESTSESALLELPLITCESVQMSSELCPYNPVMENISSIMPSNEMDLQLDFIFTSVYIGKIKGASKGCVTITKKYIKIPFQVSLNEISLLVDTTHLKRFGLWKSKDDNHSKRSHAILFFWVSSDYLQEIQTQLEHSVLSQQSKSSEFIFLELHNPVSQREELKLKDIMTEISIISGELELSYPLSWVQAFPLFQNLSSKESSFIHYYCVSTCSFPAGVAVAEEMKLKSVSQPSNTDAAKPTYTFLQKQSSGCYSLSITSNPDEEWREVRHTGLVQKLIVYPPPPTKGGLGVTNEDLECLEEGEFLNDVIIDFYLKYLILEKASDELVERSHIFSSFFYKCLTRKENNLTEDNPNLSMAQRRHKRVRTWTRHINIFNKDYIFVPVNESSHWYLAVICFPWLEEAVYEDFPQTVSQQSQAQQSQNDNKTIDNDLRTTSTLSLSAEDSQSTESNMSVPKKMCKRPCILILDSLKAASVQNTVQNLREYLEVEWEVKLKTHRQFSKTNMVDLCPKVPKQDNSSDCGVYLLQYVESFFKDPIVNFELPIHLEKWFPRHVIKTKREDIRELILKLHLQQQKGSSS

[5] = biological target: T4, Sentrin-specific protease 6 (Homo sapiens, UniProt Q9GZR1); test: SAR Analysis of small molecule inhibitors of Sentrin-specific protease 6 (SENP6) using a Luminescent assay. [Related pubchem assays (depositor defined):AID2582, AID2599]
T4 sequence (Q9GZR1 whole entry): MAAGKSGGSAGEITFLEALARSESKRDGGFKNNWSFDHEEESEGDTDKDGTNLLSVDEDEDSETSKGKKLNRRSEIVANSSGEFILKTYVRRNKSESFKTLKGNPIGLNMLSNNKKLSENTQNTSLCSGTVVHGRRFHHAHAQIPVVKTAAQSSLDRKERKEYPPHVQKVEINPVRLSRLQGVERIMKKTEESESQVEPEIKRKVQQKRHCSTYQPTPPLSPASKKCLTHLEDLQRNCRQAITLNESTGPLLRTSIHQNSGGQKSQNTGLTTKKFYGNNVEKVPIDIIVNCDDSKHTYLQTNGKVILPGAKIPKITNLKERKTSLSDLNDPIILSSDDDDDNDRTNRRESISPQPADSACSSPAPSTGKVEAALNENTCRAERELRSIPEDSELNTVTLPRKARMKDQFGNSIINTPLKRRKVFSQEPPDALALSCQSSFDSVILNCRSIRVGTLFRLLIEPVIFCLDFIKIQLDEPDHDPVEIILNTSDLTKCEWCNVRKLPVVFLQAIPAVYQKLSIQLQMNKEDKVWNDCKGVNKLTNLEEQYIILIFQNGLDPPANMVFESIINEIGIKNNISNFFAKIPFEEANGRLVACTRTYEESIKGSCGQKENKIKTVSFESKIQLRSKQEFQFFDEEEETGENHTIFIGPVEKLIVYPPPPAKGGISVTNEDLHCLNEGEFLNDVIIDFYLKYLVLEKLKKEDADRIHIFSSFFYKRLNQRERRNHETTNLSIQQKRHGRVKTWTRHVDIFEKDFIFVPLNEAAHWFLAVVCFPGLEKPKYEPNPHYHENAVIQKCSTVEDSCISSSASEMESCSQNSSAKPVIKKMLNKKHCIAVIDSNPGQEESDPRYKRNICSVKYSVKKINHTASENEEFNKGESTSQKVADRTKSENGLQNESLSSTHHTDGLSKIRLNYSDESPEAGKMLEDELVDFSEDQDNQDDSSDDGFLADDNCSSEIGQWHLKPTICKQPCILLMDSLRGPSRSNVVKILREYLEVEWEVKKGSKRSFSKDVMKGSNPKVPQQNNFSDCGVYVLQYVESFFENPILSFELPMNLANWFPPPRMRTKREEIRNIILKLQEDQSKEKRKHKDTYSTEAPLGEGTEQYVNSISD

P388 = test: cells; conditions: Mus musculus
P388/ADR = test: cells; conditions: Mus musculus
SN12K1 = test: cells; conditions: Homo sapiens
[6] = biological target: T1, Sentrin-specific protease 8
[7] = biological target: T3, Sentrin-specific protease 7
Caspase-3 [8] = biological target: T2, Caspase-3
[9] = biological target: T4, Sentrin-specific protease 6
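Wherever AC50 is given: cells exposed to compound for roughly 70 hours or longer before luminescence read.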

| SMILES | IC50 [2] | IC50 (Caspase-3 [3]) | IC50 [4] | IC50 [5] | GI50 (P388) | GI50 (P388/ADR) | GI50 (SN12K1) | other results |
| --- | --- | --- | --- | --- | --- | --- | --- | --- |
| N#Cc1c(NC(=O)c2ccc(Cn3cc(Br)cn3)o2)sc2c1CCCCC2 | > 99 µM (inactive) | > 99 µM (inactive) | > 99 µM (inactive) | > 99 µM (inactive) |  |  |  | AC50 [1]: 2.97 µM (active) |
| CCOC(=O)C(C)N1C(=O)c2ccccc2S1(=O)=O (stereo unspecified) |  |  |  |  | > 100 µM (inactive) | > 100 µM (inactive) | > 100 µM (inactive) |  |
| O=C(O)/C=C/c1c[nH]c(=O)[nH]c1=O |  |  |  |  | > 500 µM (inactive) | > 500 µM (inactive) | > 500 µM (inactive) |  |
| CC(=O)Oc1ccccc1/C=C(\C)c1noc(-c2ccccc2O)n1 | > 99 µM (inactive) | > 99 µM (inactive) | > 99 µM (inactive) | > 99 µM (inactive) |  |  |  |  |
| Cc1nc(Nc2ccc(C(=O)O)cc2)sc1-c1ccccc1 |  |  |  |  |  |  |  | IC50 [6]: 1.88 µM (active); IC50 [7]: 0.797 µM (active); IC50 (Caspase-3 [8]): 10.9 µM (active); IC50 [9]: 0.787 µM (active) |
| Cc1c2cnccc2c(C)c2c1c1ccccc1n2CCCCCCCl |  |  |  |  | 1.77 µM (inactive) | 22.8 µM (inactive) | 30 µM (inactive) |  |
| C[C@@]1(CO)[C@H](O)CC[C@@]2(C)[C@H]1CC[C@H]1C[C@@H]3C[C@@]12CC[C@@]3(O)COC(=O)CN |  |  |  |  | 1.11 µM (active) | 0.481 µM (active) |  |  |
| O=C(Nc1ccc(F)c(F)c1)c1ccc2c(c1)OCO2 | 8.53 µM (active) | 3.11 µM (active) | 2.85 µM (active) | 8.66 µM (active) |  |  |  |  |
| Nc1nc(N)c2nc(CNc3ccc(C(=O)NC(CCCNC(=O)c4ccccc4C(=O)O)C(=O)O)cc3)cnc2n1 (stereo unspecified) |  |  |  |  | < 0.01 µM (active) | < 0.01 µM (active) | < 0.01 µM (active) |  |
| O=C1/C(=C/c2cccc(F)c2)Oc2cc(O)ccc21 | 15.8 µM (active) | 9.25 µM (active) | 4.4 µM (active) | 12 µM (active) |  |  |  | IC50 [6]: 2.29 µM (active); IC50 [7]: 6.09 µM (active); IC50 (Caspase-3 [8]): 18.2 µM (active); IC50 [9]: 15.9 µM (active) |
| COc1cc(OC)cc(C(=O)Nc2ccc(Nc3ccccc3)cc2)c1 |  |  |  |  |  |  |  | AC50 [1]: 4.09 µM (active); IC50 [6]: 22.5 µM (active); IC50 [7]: 5.27 µM (active); IC50 (Caspase-3 [8]): 30.3 µM (active); IC50 [9]: 17.8 µM (active) |
| CCCCCCCC/C=C\CCCCCCCCCCCC(=O)O [ERUCIC ACID] |  |  |  |  | 11.2 µM (inactive) | 14.4 µM (inactive) | 9.62 µM (inactive) |  |
| O=C(Nc1nc2ccc(Cl)cc2s1)c1ccc(C(F)(F)F)cc1 | > 99 µM (inactive) | > 99 µM (inactive) | > 99 µM (inactive) | > 99 µM (inactive) |  |  |  |  |
